These results are taken from ChEMBL document CHEMBL1139938, “Syntheses and antibacterial activity of phendioxy substituted cyclic enediynes” (2007).

Structures are written as SMILES. In brackets after ≈: the same amount, converted by molar mass. Activity calls are given as the source filed them. The calls are words filed in the database; no cut-off is given here.

The test system of test [1] is Pseudomonas aeruginosa. The experiment in a line: Antibacterial activity against Pseudomonas aeruginosa ATCC 11775. Type of test: functional.
In test [2] the test system is Escherichia coli. Description: Antibacterial activity against Escherichia coli ATCC 25668. The class given is functional.
Test [3] relates to Salmonella typhimurium. Description: Antibacterial activity against Salmonella Typhimurium isolate. Type of test: functional, Salmonella enterica subsp. enterica serovar Typhimurium. Particulars: Salmonella enterica.
Test [4] deals with Staphylococcus aureus. The experiment in a line: Antibacterial activity against Staphylococcus aureus isolate. The class given is functional.
For test [5], the system named is Pseudomonas aeruginosa. The experiment in a line: Antibacterial activity against Pseudomonas aeruginosa ATCC 11775 upto 512 ug/mL. The class given is functional, organism-based.
For test [6], the system named is Escherichia coli. Description: Antibacterial activity against Escherichia coli ATCC 25668 upto 512 ug/mL. The class given is functional, organism-based.
Test [7] has as its system Staphylococcus aureus. Description: Antibacterial activity against Staphylococcus aureus isolate upto 512 ug/mL. Type of test: functional, organism-based.
Test [8] deals with Salmonella typhimurium. The experiment in a line: Antibacterial activity against Salmonella Typhimurium isolate upto 512 ug/mL. Type of test: functional, organism-based. The conditions noted are these: Salmonella enterica subsp. enterica serovar Typhimurium.

One may read the MIC as the lowest concentration found to suppress growth. Read a high MIC as a need for much substance. `CN(C)[C@@H]1C(O)=C(C(N)=O)C(=O)[C@@]2(O)C(O)=C3C(=O)c4c(O)cccc4[C@@](C)(O)[C@H]3C[C@@H]12` [TETRACYCLINE]: the MIC in the test on Pseudomonas aeruginosa [1] was 1 mg/L (≈ 2.25 µM); in the test on Escherichia coli [2] it was 2 mg/L (≈ 4.5 µM); in the test with Salmonella typhimurium [3] it was 0.5 mg/L (≈ 1.13 µM); against Staphylococcus aureus [4], 2 mg/L (≈ 4.5 µM).

On to `C#CCOc1cccc(OCC#C)c1`, for which the MIC with Pseudomonas aeruginosa [1], in the test on Escherichia coli [2], with Salmonella typhimurium [3] and against Staphylococcus aureus [4] was > 1000 mg/L each time.

Take `O=Cc1ccc2cc1OCC#C/C=C\C#CCO2`: in the test with Pseudomonas aeruginosa [5], the outcome was inactive. Further, the values for the MIC in the test with Escherichia coli [2], with Salmonella typhimurium [3] and in the test with Staphylococcus aureus [4] were 256 mg/L (≈ 1070 µM), 128 mg/L (≈ 537 µM) and 8 mg/L (≈ 33.6 µM), respectively.

For the compound `Brc1ccc(/N=C/c2ccc3cc2OCC#C/C=C\C#CCO3)cc1`, the result in the test with Pseudomonas aeruginosa [5], in the test on Escherichia coli [6] and with Staphylococcus aureus [7] was inactive. The compound further gave an MIC against Salmonella typhimurium [3] of 128 mg/L (≈ 326 µM).

For `C1#CCOc2ccc(CNc3ccccc3)c(c2)OCC#C/C=C\1`, the minimal inhibitory concentration (MIC) is 16 mg/L (≈ 50.7 µM) against Pseudomonas aeruginosa [1], 4 mg/L (≈ 12.7 µM) against Escherichia coli [2], 16 mg/L (≈ 50.7 µM) in the test on Salmonella typhimurium [3] and 8 mg/L (≈ 25.4 µM) against Staphylococcus aureus [4].

In the case of `OCc1ccc2cc1OCC#C/C=C\C#CCO2`, the outcome in the test with Pseudomonas aeruginosa [5] was inactive. Besides, the minimum inhibitory concentration (MIC) stood at 8 mg/L (≈ 33.3 µM) with Escherichia coli [2], 128 mg/L (≈ 533 µM) against Salmonella typhimurium [3] and 4 mg/L (≈ 16.6 µM) against Staphylococcus aureus [4].

For `Cc1ccc(/N=C/c2ccc3cc2OCC#C/C=C\C#CCO3)cc1`, the outcome with Pseudomonas aeruginosa [5] and in the test on Staphylococcus aureus [7] was inactive. In addition, the minimal inhibitory concentration (MIC) in the test with Escherichia coli [2] stood at 256 mg/L (≈ 782 µM); in the test with Salmonella typhimurium [3], 128 mg/L (≈ 391 µM).

Turning to `Cc1ccc(NCc2ccc3cc2OCC#C/C=C\C#CCO3)cc1`, the MIC with Pseudomonas aeruginosa [1] turned out to be 32 mg/L (≈ 97.1 µM); with Escherichia coli [2], 4 mg/L (≈ 12.1 µM); against Salmonella typhimurium [3], 128 mg/L (≈ 389 µM); in the test on Staphylococcus aureus [4], 16 mg/L (≈ 48.6 µM).

Regarding `C1#CCOc2cccc(c2)OCC#C/C=C\1`, the result with Pseudomonas aeruginosa [5] and in the test with Staphylococcus aureus [7] was inactive. Also, the MIC with Escherichia coli [2] was found to be 4 mg/L (≈ 19 µM); against Salmonella typhimurium [3], 8 mg/L (≈ 38.1 µM).

As for `C#CCOc1ccc(C=O)c(OCC#C)c1`, the minimum inhibitory concentration (MIC) against Pseudomonas aeruginosa [1], in the test with Escherichia coli [2], against Salmonella typhimurium [3] and in the test on Staphylococcus aureus [4] was > 1000 mg/L in each case.

Consider `Brc1ccc(NCc2ccc3cc2OCC#C/C=C\C#CCO3)cc1`, for which the outcome with Salmonella typhimurium [8], in the test with Pseudomonas aeruginosa [5] and in the test on Staphylococcus aureus [7] was inactive. The compound further had a minimum inhibitory concentration (MIC) against Escherichia coli [2] of 128 mg/L (≈ 325 µM).

In the case of `C1#CCOc2ccc(/C=N/c3ccccc3)c(c2)OCC#C/C=C\1`, the MIC came out at 128 mg/L (≈ 408 µM) in the test on Pseudomonas aeruginosa [1], 128 mg/L (≈ 408 µM) against Escherichia coli [2], 64 mg/L (≈ 204 µM) in the test with Salmonella typhimurium [3] and 128 mg/L (≈ 408 µM) against Staphylococcus aureus [4].

On to `Clc1ccc(NCc2ccc3cc2OCC#C/C=C\C#CCO3)cc1`, for which the outcome with Pseudomonas aeruginosa [5] and in the test on Staphylococcus aureus [7] was inactive. Also, the MIC amounted to 64 mg/L (≈ 183 µM) with Escherichia coli [2] and 512 mg/L (≈ 1460 µM) with Salmonella typhimurium [3].
